{"source": "paper PMC7274485", "about": "“A symbiotic bacterium of shipworms produces a compound with broad spectrum anti-apicomplexan activity” (PLoS Pathogens, 2020)", "key": {"[1]": {"test_system": "Gram positive bacteria", "settings": "at μM concentrations; cited from earlier work"}, "[2]": {"test_system": "T. gondii ME49", "test": "Length of treatment needed to kill intracellular T. gondii (compound wash-off, luciferase 72 hours later)", "type": "cell-based, Toxoplasma gondii", "settings": "30 nM trtE, ME49 in HFF, treated 0.5 to 4 hours, washed off, growth 72 hours after treatment", "procedure": "To test this hypothesis, we infected HFF cells with luciferase-expressing T. gondii ME49 for 24 hours, then treated infected cells with trtE for 30 minutes to 4 hours. The compound was then washed off the infected cells, and parasite growth was quantified 3 days after the removal of the compound. Parasites treated for at least 2 hours were killed by trtE (Fig 2E).\nT. gondii parasite lines were maintained by passage in HFFs as previously described. To determine the effect of trtE on intracellular parasites, 96 well plates containing confluent HFFs were infected with T. gondii strain ME49 modified to express green fluorescent protein (GFP) and luciferase (Luc), generated as described or T. gondii RH strain GFP/Luc (a kind gift from Dr. Jeroen Saeij, UC Davis). […] Growth was monitored by luciferase expression using Bright-glo Luciferase assay system (Promega Corp., Madison, WI). To determine the length of treatment needed to kill intracellular parasites, trtE was added to infected cells and then the compound removed 0.5, 1, 2 and 4 hours later by washing the monolayer three times with complete media. Infected cells were then incubated for 72 hours before growth was quantified by luciferase expression. For time-lapse images, HFFs were seeded into 35 mm glass bottom microwell dishes (MatTek Corporation, Ashland, MA). […]"}, "[3]": {"test_system": "Gram negative bacteria", "settings": "at μM concentrations; cited from earlier work"}, "[4]": {"test_system": "Cryptosporidium parvum", "test": "Nanoluciferase-expressing C. parvum inhibitor response assay in HCT-8 cells", "type": "cell-based", "settings": "HCT-8 cells infected 24 hours, read 48 hours post-treatment, read-out: EC50 against C. parvum", "procedure": "We had postulated that secondary metabolites generated by symbiotic bacteria of invertebrates might include compounds that target gregarines, an ancient group of apicomplexans found in most, and perhaps all, invertebrates. The only gregarines known to infect mammals are Cryptosporidium species, gastrointestinal parasites that cause diarrheal disease in humans and other mammals. HCT8 cells were infected with luciferase-expressing Cryptosporidium parvum parasites for 24 hours, then two-fold dilutions of trtE added to the infected cells. 48 hours after the addition of trtE, parasite growth was quantified by luciferase expression. […] To examine the morphology of trtE treated C. parvum parasites, HCT8 cells were infected with C. parvum oocysts for 8 hours. Extracellular parasites were washed off and medium containing 60 nM trtE added to the infected cells. After 12 hours of treatment, infected cells were fixed and processed for IFAs.\nC. parvum oocysts expressing nanoluciferase (nLuc) were obtained from the Cryptosporidium Production Laboratory at the University of Arizona and inhibitor response assays were conducted as previously described."}, "[5]": {"test_system": "intracellular T. gondii RH strain", "test": "Immunofluorescence assay (anti-SAG1) of T. gondii-infected HFF cells", "type": "cell-based, Toxoplasma gondii", "settings": "RH strain in HFF; 60 nM trtE for 24 hours (Fig 2B)", "from_the_text": "For our initial study, we chose to look for anti-apicomplexan compounds in Teredinibacter turnerae. T. turnerae is a gill symbiotic bacterium common to many species of shipworms. We grew two strains of T. turnerae, T7901 [1] and T7902 [24], in shipworm bacterial media (SBM), pelleted the cells and tested the culture supernatants for activity against T. gondii. We chose T. gondii, a ubiquitous coccidian parasite, as a target parasite because it represents a significant human and animal pathogen, it is easily propagated in vitro and is amenable to genetic manipulation. T. gondii is often used as a model for other, more challenging apicomplexans. […] Parasites were evaluated after 24 hours of treatment by immunofluorescence (IFA) microscopy with rabbit antibody to the T. gondii surface antigen, SAG1 [27]. […]\nFor all IFAs, the investigator reading the slides and collecting images was blind to the sample treatment. […] 24 hours post treatment, infected cells were fixed with methanol, and parasites detected with rabbit anti-SAG1 antibody for T. gondii or rabbit anti-gp15 for C. parvum as we have described previously. […] This CE11 line is transiently transfected with a plasmid that expresses nanoluciferase from a B. divergens promoter and green fluorescence protein-blasticidin (gfp-bsd) from the selection cassette. […]"}}}
{"smiles": "CC1CCC=CC=CCCC(O)CC(=O)CC2CCC(C)C3(O2)O[B-]24OC(C(=O)O1)C1(OC(CCC1C)CC(=O)CC(O)CCC=CC=CCCC(C)OC(=O)C3O2)O4", "note": "(centres unmarked) [trtE, tartrolon E]", "values": [{"measurement": "Activity of trtE against Gram positive bacteria", "setting": "[1]", "result": "active"}, {"measurement": "Length of trtE treatment after which parasites were killed", "setting": "[2]", "result": "kills the parasites after two hours of treatment"}, {"measurement": "Activity of trtE against Gram negative bacteria", "setting": "[3]", "result": "active"}, {"measurement": "EC50", "setting": "[4]", "result": 3.85, "unit": "nM"}, {"measurement": "Effect of purified trtE on intracellular T. gondii (IFA)", "setting": "[5]", "result": "inhibited intracellular T. gondii growth"}]}
